Source: patent publication US10239869B2, “Sulfonamide compounds as voltage-gated sodium channel modulators” (LUPIN LIMITED, priority 2015, dated 2019)
Read-outs that look alike come from different tables or passages of the source.

How the values were obtained:
Nav 1.7 = Nav 1.7 (Homo sapiens (Human), UniProt Q15858); assay: Inhibition of sodium channels, Red Membrane Potential Dye FLIPR assay, veratridine depolarization; format: cell-based; details: HEK-293 cells overexpressing the channel; read-out: Nav1.7 IC50
Nav 1.5 = Nav 1.5 (Homo sapiens (Human), UniProt Q14524); assay: as above; format: cell-based; details: HEK-293 cells overexpressing the channel; for inhibition at 10 µM: HEK-293 cells overexpressing Nav 1.5
[1] = read-out: Nav1.5 IC50 (bound given in μM)

Nav 1.5, sequence (Q14524 whole entry): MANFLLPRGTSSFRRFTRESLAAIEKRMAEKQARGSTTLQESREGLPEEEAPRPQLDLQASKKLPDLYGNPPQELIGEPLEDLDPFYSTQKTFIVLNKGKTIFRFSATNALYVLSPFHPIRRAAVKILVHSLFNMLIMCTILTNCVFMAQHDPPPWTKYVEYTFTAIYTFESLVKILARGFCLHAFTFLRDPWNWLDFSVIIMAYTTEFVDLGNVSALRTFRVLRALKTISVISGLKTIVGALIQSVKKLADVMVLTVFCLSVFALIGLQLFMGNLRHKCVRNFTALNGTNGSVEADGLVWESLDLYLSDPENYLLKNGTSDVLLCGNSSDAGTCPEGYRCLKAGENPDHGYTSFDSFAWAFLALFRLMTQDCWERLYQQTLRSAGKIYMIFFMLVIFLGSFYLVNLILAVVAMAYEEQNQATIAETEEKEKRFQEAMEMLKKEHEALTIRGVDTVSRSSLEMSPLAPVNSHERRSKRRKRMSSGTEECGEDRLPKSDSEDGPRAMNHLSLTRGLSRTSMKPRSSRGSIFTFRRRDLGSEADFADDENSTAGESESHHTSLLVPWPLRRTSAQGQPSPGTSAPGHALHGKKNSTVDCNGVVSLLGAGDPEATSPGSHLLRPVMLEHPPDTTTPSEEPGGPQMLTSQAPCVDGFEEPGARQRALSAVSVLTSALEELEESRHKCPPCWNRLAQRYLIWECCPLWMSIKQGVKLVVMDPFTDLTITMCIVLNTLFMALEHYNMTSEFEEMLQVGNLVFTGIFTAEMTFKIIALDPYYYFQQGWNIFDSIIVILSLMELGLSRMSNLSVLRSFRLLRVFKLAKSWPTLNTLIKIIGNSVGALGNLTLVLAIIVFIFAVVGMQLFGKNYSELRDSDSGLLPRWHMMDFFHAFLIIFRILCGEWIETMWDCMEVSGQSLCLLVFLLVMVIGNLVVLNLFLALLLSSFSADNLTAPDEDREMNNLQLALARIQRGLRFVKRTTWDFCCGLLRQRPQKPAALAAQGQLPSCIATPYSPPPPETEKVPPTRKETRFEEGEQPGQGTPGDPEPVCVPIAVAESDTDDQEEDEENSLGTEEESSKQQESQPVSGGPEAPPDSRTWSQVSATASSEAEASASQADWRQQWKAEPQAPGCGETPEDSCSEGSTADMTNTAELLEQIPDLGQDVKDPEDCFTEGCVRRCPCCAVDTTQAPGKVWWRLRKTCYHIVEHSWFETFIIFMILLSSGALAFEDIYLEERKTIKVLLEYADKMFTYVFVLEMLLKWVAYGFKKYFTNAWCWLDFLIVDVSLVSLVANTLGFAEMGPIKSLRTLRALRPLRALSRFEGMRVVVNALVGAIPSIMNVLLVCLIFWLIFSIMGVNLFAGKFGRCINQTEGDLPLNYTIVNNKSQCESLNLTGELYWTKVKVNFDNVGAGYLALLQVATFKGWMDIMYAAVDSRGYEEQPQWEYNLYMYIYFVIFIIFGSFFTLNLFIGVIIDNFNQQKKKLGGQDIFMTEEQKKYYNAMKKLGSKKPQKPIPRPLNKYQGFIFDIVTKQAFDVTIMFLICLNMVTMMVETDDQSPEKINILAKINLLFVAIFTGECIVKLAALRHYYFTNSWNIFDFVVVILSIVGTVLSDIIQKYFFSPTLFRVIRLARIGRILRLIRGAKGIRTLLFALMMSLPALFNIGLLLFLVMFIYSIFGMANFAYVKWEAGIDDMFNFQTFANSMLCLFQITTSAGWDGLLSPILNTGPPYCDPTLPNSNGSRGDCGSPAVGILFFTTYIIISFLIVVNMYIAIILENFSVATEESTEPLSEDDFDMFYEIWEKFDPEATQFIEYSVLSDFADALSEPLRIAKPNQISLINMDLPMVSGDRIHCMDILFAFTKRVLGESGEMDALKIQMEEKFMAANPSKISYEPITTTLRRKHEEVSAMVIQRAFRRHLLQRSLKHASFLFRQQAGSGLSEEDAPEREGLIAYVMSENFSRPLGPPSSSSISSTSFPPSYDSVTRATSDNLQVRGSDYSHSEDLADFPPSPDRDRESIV
Nav 1.7, sequence (Q15858 whole entry): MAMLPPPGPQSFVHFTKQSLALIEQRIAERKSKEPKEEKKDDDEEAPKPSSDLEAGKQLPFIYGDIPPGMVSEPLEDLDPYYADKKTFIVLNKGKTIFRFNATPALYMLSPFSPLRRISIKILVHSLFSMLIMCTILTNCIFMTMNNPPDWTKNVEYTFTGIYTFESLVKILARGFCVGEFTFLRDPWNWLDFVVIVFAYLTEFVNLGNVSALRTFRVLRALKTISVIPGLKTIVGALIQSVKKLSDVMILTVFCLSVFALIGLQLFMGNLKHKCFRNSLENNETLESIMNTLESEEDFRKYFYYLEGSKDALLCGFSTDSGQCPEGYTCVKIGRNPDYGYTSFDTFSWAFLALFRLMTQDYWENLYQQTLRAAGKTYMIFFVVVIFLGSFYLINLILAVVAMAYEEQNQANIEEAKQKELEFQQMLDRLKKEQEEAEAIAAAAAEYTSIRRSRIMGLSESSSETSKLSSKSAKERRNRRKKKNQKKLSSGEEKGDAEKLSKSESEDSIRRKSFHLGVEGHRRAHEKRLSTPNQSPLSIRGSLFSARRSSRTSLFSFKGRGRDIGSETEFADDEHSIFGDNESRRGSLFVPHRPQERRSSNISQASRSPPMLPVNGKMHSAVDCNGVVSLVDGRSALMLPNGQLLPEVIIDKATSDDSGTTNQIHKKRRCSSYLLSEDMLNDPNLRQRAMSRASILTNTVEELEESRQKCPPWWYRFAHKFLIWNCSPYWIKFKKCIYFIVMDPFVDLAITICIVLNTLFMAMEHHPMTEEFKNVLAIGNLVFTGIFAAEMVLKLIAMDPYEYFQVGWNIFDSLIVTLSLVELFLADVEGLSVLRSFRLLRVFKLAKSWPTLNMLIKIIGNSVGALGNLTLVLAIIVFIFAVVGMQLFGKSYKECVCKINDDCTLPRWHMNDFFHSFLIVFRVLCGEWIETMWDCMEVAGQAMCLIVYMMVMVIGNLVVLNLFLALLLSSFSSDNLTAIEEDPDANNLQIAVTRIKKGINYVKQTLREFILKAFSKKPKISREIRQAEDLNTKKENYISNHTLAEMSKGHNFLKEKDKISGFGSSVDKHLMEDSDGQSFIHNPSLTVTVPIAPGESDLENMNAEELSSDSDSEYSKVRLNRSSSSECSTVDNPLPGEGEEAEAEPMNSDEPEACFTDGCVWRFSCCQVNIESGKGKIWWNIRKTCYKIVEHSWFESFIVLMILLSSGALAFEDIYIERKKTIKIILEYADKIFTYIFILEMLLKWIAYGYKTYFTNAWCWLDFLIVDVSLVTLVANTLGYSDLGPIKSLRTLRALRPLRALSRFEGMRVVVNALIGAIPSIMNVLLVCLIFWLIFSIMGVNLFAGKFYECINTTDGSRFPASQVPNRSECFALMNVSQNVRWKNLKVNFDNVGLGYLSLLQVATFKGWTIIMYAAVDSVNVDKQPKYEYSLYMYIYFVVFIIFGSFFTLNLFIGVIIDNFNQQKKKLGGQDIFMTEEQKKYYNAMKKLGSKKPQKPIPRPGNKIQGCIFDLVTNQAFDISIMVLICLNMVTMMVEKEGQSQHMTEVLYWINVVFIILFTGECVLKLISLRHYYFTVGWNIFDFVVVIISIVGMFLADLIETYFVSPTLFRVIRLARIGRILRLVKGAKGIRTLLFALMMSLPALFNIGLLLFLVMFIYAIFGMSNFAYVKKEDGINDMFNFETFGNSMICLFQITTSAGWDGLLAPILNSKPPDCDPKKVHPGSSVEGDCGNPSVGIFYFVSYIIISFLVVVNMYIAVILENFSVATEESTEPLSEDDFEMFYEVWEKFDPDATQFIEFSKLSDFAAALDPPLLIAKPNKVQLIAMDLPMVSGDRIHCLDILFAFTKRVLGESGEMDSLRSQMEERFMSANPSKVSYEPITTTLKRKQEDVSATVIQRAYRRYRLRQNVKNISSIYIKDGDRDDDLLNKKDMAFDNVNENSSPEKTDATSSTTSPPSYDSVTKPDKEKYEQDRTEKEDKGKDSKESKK

IC50 (Nav 1.7) [nM]	SMILES	IC50 (Nav 1.5; [1]) [µM]	inhibition at 10 µM (Nav 1.5) [%]	IC50 (Nav 1.5; read-out: Nav1.5 IC50) [µM]
1960	O=C1CCCN1c1cc(C(F)(F)F)ccc1[C@H]1CCOc2cc(S(=O)(=O)Nc3ccncn3)ccc21 (racemic) [Example 116, (R/S)-4-(2-(2-oxopyrrolidin-1-yl)-4-(trifluoromethyl)phenyl)-N-(pyrimidin-4-yl)chroman-7-sulfonamide]	> 10		
106	O=C1CCCN1c1cc(C(F)(F)F)ccc1[C@H]1CCOc2cc(S(=O)(=O)Nc3cccnn3)ccc21 (racemic) [Example 117, (R/S)-4-(2-(2-oxopyrrolidin-1-yl)-4-(trifluoromethyl)phenyl)-N-(pyridazin-3-yl)chromane-7-sulfonamide]	> 10		
38	O=S(=O)(Nc1cccnn1)c1ccc2c(c1)OCC[C@@H]2c1ccc(C(F)(F)F)cc1N1CCOCC1 (racemic) [Example 122, (R/S)-4-(2-morpholino-4-(trifluoromethyl)phenyl)-N-(pyridazin-3-yl)chroman-7-sulfonamide]		54	
140	COCCOc1cc(C(F)(F)F)ccc1[C@H]1CCOc2cc(S(=O)(=O)Nc3ncc(F)cn3)ccc21 (racemic) [Example 126, (R/S)—N-(5-fluoropyrimidin-2-yl)-4-(2-(2-methoxyethoxy)-4-(trifluoromethyl)phenyl)chroman-7-sulfonamide]	> 10		
4	COCCOc1cc(C(F)(F)F)ccc1[C@H]1CCOc2cc(S(=O)(=O)Nc3ccncn3)ccc21 (racemic) [Example 127, (R/S)-4-(2-(2-methoxyethoxy)-4-(trifluoromethyl)phenyl)-N-(pyrimidin-4-yl)chroman-7-sulfonamide]		37	
145	COCCOc1cc(C(F)(F)F)ccc1[C@H]1CCOc2cc(S(=O)(=O)Nc3cccnn3)ccc21 (racemic) [Example 128, (R/S)-4-(2-(2-methoxyethoxy)-4-(trifluoromethyl)phenyl)-N-(pyridazin-3-yl)chroman-7-sulfonamide]		55	
16	COCCOc1cc(C(F)(F)F)ccc1[C@H]1CCOc2cc(S(=O)(=O)Nc3cccc(F)n3)ccc21 (racemic) [Example 129, (R/S)—N-(6-fluoropyridin-2-yl)-4-(2-(2-methoxyethoxy)-4-(trifluoromethyl)phenyl)chroman-7-sulfonamide]		62	
163	COCCCOc1cc(C(F)(F)F)ccc1[C@H]1CCOc2cc(S(=O)(=O)Nc3ncc(F)cn3)ccc21 (racemic) [Example 132, (R/S)—N-(5-fluoropyrimidin-2-yl)-4-(2-(3-methoxypropoxy)-4-(trifluoromethyl)phenyl)chroman-7-sulfonamide]	> 10		
128	COCCCOc1cc(C(F)(F)F)ccc1[C@H]1CCOc2cc(S(=O)(=O)Nc3cccnn3)ccc21 (racemic) [Example 133, (R/S)-4-(2-(3-methoxypropoxy)-4-(trifluoromethyl)phenyl)-N-(pyridazin-3-yl)chroman-7-sulfonamide]		66	
31	COCCCOc1cc(C(F)(F)F)ccc1[C@H]1CCOc2cc(S(=O)(=O)Nc3cccc(F)n3)ccc21 (racemic) [Example 134, (R/S)—N-(6-fluoropyridin-2-yl)-4-(2-(3-methoxypropoxy)-4-(trifluoromethyl)phenyl)chroman-7-sulfonamide]			1.34
708	COCCc1cc(C(F)(F)F)ccc1[C@H]1CCOc2cc(S(=O)(=O)Nc3ncccn3)ccc21 (racemic) [Example 135, (R/S)-4-(2-(2-methoxyethyl)-4-(trifluoromethyl)phenyl)-N-(pyrimidin-2-yl)chroman-7-sulfonamide]	> 10		
655	COCCc1cc(C(F)(F)F)ccc1[C@H]1CCOc2cc(S(=O)(=O)Nc3ncc(F)cn3)ccc21 (racemic) [Example 136, (R/S)—N-(5-fluoropyrimidin-2-yl)-4-(2-(2-methoxyethyl)-4-(trifluoromethyl)phenyl)chroman-7-sulfonamide]		33	
12	COCCc1cc(C(F)(F)F)ccc1[C@H]1CCOc2cc(S(=O)(=O)Nc3cccc(F)n3)ccc21 (racemic) [Example 137, (R/S)—N-(6-fluoropyridin-2-yl)-4-(2-(2-methoxyethyl)-4-(trifluoromethyl)phenyl)chroman-7-sulfonamide]			3.64
588	COCCc1cc(C(F)(F)F)ccc1[C@H]1CCOc2cc(S(=O)(=O)Nc3ccncn3)ccc21 (racemic) [Example 138, (R/S)-4-(2-(2-methoxyethyl)-4-(trifluoromethyl)phenyl)-N-(pyrimidin-4-yl)chroman-7-sulfonamide]	> 10		
33	COCCc1cc(C(F)(F)F)ccc1[C@H]1CCOc2cc(S(=O)(=O)Nc3cccnn3)ccc21 (racemic) [Example 139, (R/S)-4-(2-(2-methoxyethyl)-4-(trifluoromethyl)phenyl)-N-(pyridazin-3-yl)chroman-7-sulfonamide]	> 10		
179	COCCCc1cc(C(F)(F)F)ccc1[C@H]1CCOc2cc(S(=O)(=O)Nc3ncc(F)cn3)ccc21 (racemic) [Example 142, (R/S)—N-(5-fluoropyrimidin-2-yl)-4-(2-(3-methoxypropyl)-4-(trifluoromethyl)phenyl)chroman-7-sulfonamide]	> 10		
16	COCCCc1cc(C(F)(F)F)ccc1[C@H]1CCOc2cc(S(=O)(=O)Nc3ccncn3)ccc21 (racemic) [Example 143, (R/S)-4-(2-(3-methoxypropyl)-4-(trifluoromethyl)phenyl)-N-(pyrimidin-4-yl)chroman-7-sulfonamide]			0.534
86	COCCCc1cc(C(F)(F)F)ccc1[C@H]1CCOc2cc(S(=O)(=O)Nc3cccnn3)ccc21 (racemic) [Example 144, (R/S)-4-(2-(3-methoxypropyl)-4-(trifluoromethyl)phenyl)-N-(pyridazin-3-yl)chroman-7-sulfonamide]			2.68
19	COCCCc1cc(C(F)(F)F)ccc1[C@H]1CCOc2cc(S(=O)(=O)Nc3cccc(F)n3)ccc21 (racemic) [Example 145, (R/S)—N-(6-fluoropyridin-2-yl)-4-(2-(3-methoxypropyl)-4-(trifluoromethyl)phenyl)chroman-7-sulfonamide]			2.41
172	COCCCCc1cc(C(F)(F)F)ccc1[C@H]1CCOc2cc(S(=O)(=O)Nc3ncc(F)cn3)ccc21 (racemic) [Example 148, (R/S)—N-(5-fluoropyrimidin-2-yl)-4-(2-(4-methoxybutyl)-4-(trifluoromethyl)phenyl)chroman-7-sulfonamide]	> 10		
21	COCCCCc1cc(C(F)(F)F)ccc1[C@H]1CCOc2cc(S(=O)(=O)Nc3ccncn3)ccc21 (racemic) [Example 149, (R/S)-4-(2-(4-methoxybutyl)-4-(trifluoromethyl)phenyl)-N-(pyrimidin-4-yl)chroman-7-sulfonamide]		58	
31	COCCCCc1cc(C(F)(F)F)ccc1[C@H]1CCOc2cc(S(=O)(=O)Nc3cccnn3)ccc21 (racemic) [Example 150, (R/S)-4-(2-(4-methoxybutyl)-4-(trifluoromethyl)phenyl)-N-(pyridazin-3-yl)chroman-7-sulfonamide]			1.43
